In patent publication US20220313701A1, “MODULATORS OF TREX1” (Constellation Pharmaceuticals, Inc., priority 2019, published 2022):

How the values were obtained:
full length human TREX1 = biological target: T1, full length human TREX1 (Homo sapiens, UniProt Q9NSU2); assay: TREX1 Biochemical Assay (fluorescence assay, degradation of dsDNA substrate); settings: 150 pM TREX1, 60 nM dsDNA substrate, 25 minutes at room temperature
T1 construct: N-terminally His-Tev tagged full length human TREX1; His-Tev (His tag with TEV site) (N); made in house; host or cells: E. coli
T1 sequence (Q9NSU2 1-314): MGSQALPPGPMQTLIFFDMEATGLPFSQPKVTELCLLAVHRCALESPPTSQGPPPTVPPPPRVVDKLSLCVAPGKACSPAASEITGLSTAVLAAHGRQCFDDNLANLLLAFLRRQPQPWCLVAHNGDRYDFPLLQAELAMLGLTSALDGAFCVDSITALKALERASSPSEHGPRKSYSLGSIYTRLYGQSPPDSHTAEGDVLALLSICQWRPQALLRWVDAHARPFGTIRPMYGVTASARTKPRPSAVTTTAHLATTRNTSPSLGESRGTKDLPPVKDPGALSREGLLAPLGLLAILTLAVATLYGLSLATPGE
Protocol: Degradation of the dsDNA liberates free fluorophore to produce a fluorescent signal. Specifically, 7.5 μL of N-terminally His-Tev tagged full length human TREX1 (expressed in E. coli and purified in house) in reaction buffer (50 mM Tris (pH 7.4), 150 mM NaCl, 2 mM DTT, 0.1 mg/mL BSA, 0.01% (v/v) Tween-20 and either 100 mM MgCl2) was added to a 384-well Black ProxiPlate Plus (Perkin Elmer) which already contained compound (150 nL) at varying concentrations as a 10 point dose-response in DMSO. To this was added 7.5 μL of dsDNA substrate (Strand A: 5′ TEX615/GCT AGG CAG 3′; Strand B: 5′ CTG CCT AGC/IAbRQSp (Integrated DNA Technologies)) in reaction buffer. Final concentrations were 150 pM TREX1, 60 nM dsDNA substrate in reaction buffer with 1.0% DMSO (v/v). After 25 minutes at room temperature, reactions were quenched by the addition of 5 μL of stop buffer (same as reaction buffer plus 200 mM EDTA). Final concentrations in the quenched reaction were 112.5 pM TREX1, 45 nM DNA and 50 mM EDTA in a volume of 20 μL. After a 5-minute incubation at room temperature, plates were read in a laser sourced Envision (Perkin-Elmer), measuring fluorescence at 615 nm following excitation w/570 nm light. IC50 values were calculated by comparing the measured fluorescence at 615 nm ratio relative to control wells pre-quenched w/stop buffer (100% inhibition) and no inhibitor (0% inhibition) controls as using non-linear least square four parameter fits and either Genedata or GraphPad Prism (GraphPad Software, Inc.).

[1] = biological target: T2, human TREX2 (residues M44-A279) (Homo sapiens, UniProt Q9BQ50); assay: TREX2 Biochemical Assay (fluorescence assay, degradation of dsDNA substrate); settings: 2.5 nM TREX2, 60 nM dsDNA substrate, 25 minutes at room temperature
T2 construct: human TREX2 (residues M44-A279, expressed in E. coli); His-Tev (His tag with TEV site) (N); made in house; host or cells: E. coli
T2 sequence (Q9BQ50 44-279 isoform Q9BQ50-1): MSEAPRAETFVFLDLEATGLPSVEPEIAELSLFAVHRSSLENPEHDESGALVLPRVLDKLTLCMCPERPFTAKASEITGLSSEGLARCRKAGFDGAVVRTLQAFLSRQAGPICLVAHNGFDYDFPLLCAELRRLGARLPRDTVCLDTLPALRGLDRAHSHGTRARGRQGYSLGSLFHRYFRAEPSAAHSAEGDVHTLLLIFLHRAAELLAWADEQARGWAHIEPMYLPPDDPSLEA
Protocol: Degradation of the dsDNA liberates free fluorophore to produce a fluorescent signal. Specifically, 7.5 μL of N-terminally His-Tev tagged human TREX2 (residues M44-A279, expressed in E. coli and purified in house) in reaction buffer (50 mM Tris (pH 7.4), 150 mM NaCl, 2 mM DTT, 0.1 mg/mL BSA, 0.01% (v/v) Tween-20 and 100 mM MgCl2) was added to a 384-well Black ProxiPlate Plus (Perkin Elmer) which already contained compound (150 nL) at varying concentrations as a 10 point dose-response in DMSO. To this was added 7.5 μL of dsDNA substrate (Strand A: 5′ TEX615/GCT AGG CAG 3′; Strand B: 5′ CTG CCT AGC/IAbRQSp (IDT)) in reaction buffer. Final concentrations were 2.5 nM TREX2, 60 nM dsDNA substrate in reaction buffer with 1.0% DMSO (v/v). After 25 minutes at room temperature, reactions were quenched by the addition of 5 μL of stop buffer (same as reaction buffer plus 200 mM EDTA). Final concentrations in the quenched reaction mixture were […] TREX2, 45 nM DNA and 50 mM EDTA in a volume of 20 μL. After a 5-minute incubation at room temperature, plates were read in a laser sourced Envision (Perkin-Elmer), measuring fluorescence at 615 nm following excitation w/570 nm light. IC50 values were calculated by comparing the measured fluorescence at 615 nm ratio relative to control wells pre-quenched w/stop buffer (100% inhibition) and no inhibitor (0% inhibition) controls as using non-linear least square four parameter fits and either Genedata or GraphPad Prism (GraphPad Software, Inc.).

IC50 (full length human TREX1) | IC50 [1] | Structure (SMILES)
1 to 10 µM | > 100 µM | Cc1nc(N2CCC(O)(c3ccc(F)c(F)c3)CC2)cc(N2CCOC[C@H]2c2ccccc2)n1 [Example 104, (R)-4-(3,4-difluorophenyl)-1-(2-methyl-6-(3-phenylmorpholino)pyrimidin-4-yl)piperidin-4-ol]
1 to 10 µM | > 100 µM | CN(C)C(=O)c1cccc(-c2cncc(N3CCC(O)(c4ccc(F)cc4)CC3)n2)c1 [Example 20, 3-(6-(4-(4-fluorophenyl)-4-hydroxypiperidin-1-yl)pyrazin-2-yl)-N,N-dimethylbenzamide]
< 0.1 µM | 1 to 10 µM | CCn1cc(-c2cncc(N3CCC(O)(c4ccc(F)c(F)c4)CC3)n2)c(C)n1 [Example 63, 4-(3,4-difluorophenyl)-1-(6-(1-ethyl-3-methyl-1H-pyrazol-4-yl)pyrazin-2-yl)piperidin-4-ol]
1 to 10 µM | > 100 µM | Cc1nn(C)cc1-c1cncc(N2CC[C@@](O)(c3ccc(F)c(F)c3)C[C@@H]2C)n1 (racemic) [Example 102, (rac)-cis-4-(3,4-difluorophenyl)-1-(6-(1,3-dimethyl-1H-pyrazol-4-yl)pyrazin-2-yl)-2-methylpiperidin-4-ol]
< 0.1 µM | 10 to 100 µM | Cc1nn(C)c(C)c1-c1cncc(N2CCC(O)(c3ccc(F)c(F)c3)CC2)n1 [Example 62, 4-(3,4-difluorophenyl)-1-(6-(1,3,5-trimethyl-1H-pyrazol-4-yl)pyrazin-2-yl)piperidin-4-ol]
1 to 10 µM | > 100 µM | Cn1cc(-c2cc(N3CCC(O)(c4cccc(F)c4)CC3)cc(-c3cnn(C)c3)n2)cn1 [Example 61, 1-(2,6-bis(1-methyl-1H-pyrazol-4-yl)pyridin-4-yl)-4-(3-fluorophenyl)piperidin-4-ol]
0.1 to 1 µM | > 100 µM | Cc1nn(C)cc1-c1cc(C(N)=O)cc(N2CCC(O)(c3cc(F)c(F)c(F)c3)CC2)n1 [Example 93, 2-(1,3-dimethyl-1H-pyrazol-4-yl)-6-(4-hydroxy-4-(3,4,5-trifluorophenyl)piperidin-1-yl)isonicotinamide]
1 to 10 µM | > 100 µM | O=C(NCCc1ccccn1)c1cncc(N2CCC(O)(c3ccc(F)cc3)CC2)n1 [Example 68, 6-(4-(4-fluorophenyl)-4-hydroxypiperidin-1-yl)-N-(2-(pyridin-2-yl)ethyl)pyrazine-2-carboxamide]
1 to 10 µM | 10 to 100 µM | OC1(c2ccc(Cl)cc2)CCN(c2cncc(-n3cccn3)n2)CC1 [Example 1, 1-(6-(1H-pyrazol-1-yl)pyrazin-2-yl)-4-(4-chlorophenyl)piperidin-4-ol]
0.1 to 1 µM | > 100 µM | Cc1nn(C)cc1-c1nc(N2CCC(O)(c3ccc(F)c(F)c3)CC2)sc1C(N)=O [Example 98, 2-(4-(3,4-difluorophenyl)-4-hydroxypiperidin-1-yl)-4-(1,3-dimethyl-1H-pyrazol-4-yl)thiazole-5-carboxamide]
> 10 µM | > 100 µM | Cn1nc(C(F)(F)F)cc1-c1cncc(N2CCC(O)(c3ccc(F)c(F)c3)CC2)n1 [Example 50, 4-(3,4-difluorophenyl)-1-(6-(1-methyl-3-(trifluoromethyl)-1H-pyrazol-5-yl)pyrazin-2-yl)piperidin-4-ol]
1 to 10 µM | > 100 µM | Cc1ccc(-c2cncc(N3CCC(O)(c4ccc(F)cc4)CC3)n2)cc1 [Example 34, 4-(4-fluorophenyl)-1-(6-(p-tolyl)pyrazin-2-yl)piperidin-4-ol]
< 0.1 µM | 10 to 100 µM | Cc1nn(C)cc1-c1cc(N2CCC(O)(c3ccc(F)c(F)c3)CC2)ncn1 [Example 58, 4-(3,4-difluorophenyl)-1-(6-(1,3-dimethyl-1H-pyrazol-4-yl)pyrimidin-4-yl)piperidin-4-ol]
1 to 10 µM | > 100 µM | OC1(c2ccc(F)cc2)CCN(c2cncc(-c3cccnc3)n2)CC1 [Example 16, 4-(4-fluorophenyl)-1-(6-(pyridin-3-yl)pyrazin-2-yl)piperidin-4-ol]

Second part, the molecule before the results:

Structure (SMILES) | IC50 (full length human TREX1) | IC50 [1]
Cc1nn(C)cc1-c1cnnc(N2CCC(O)(c3ccc(F)c(F)c3)CC2)c1 [Example 88, 4-(3,4-difluorophenyl)-1-(5-(1,3-dimethyl-1H-pyrazol-4-yl)pyridazin-3-yl)piperidin-4-ol] | 0.1 to 1 µM | > 100 µM
Cc1c(-c2cncc(N3CCC(O)(c4ccc(F)cc4)CC3)n2)cnn1C [Example 12, 1-(6-(1,5-dimethyl-1H-pyrazol-4-yl)pyrazin-2-yl)-4-(4-fluorophenyl)piperidin-4-ol] | 1 to 10 µM | > 100 µM
COC(=O)c1cc(-c2cnn(C)c2)nc(N2CCC(O)(c3ccc(F)cc3)CC2)c1 [Example 38, methyl 2-(4-(4-fluorophenyl)-4-hydroxypiperidin-1-yl)-6-(1-methyl-1H-pyrazol-4-yl)isonicotinate] | 1 to 10 µM | > 100 µM
Cc1nn(C)cc1-c1cncc(N2CC[C@@](O)(c3ccc(F)c(F)c3)C[C@H]2C)n1 (racemic) [Example 103, (rac)-trans-4-(3,4-difluorophenyl)-1-(6-(1,3-dimethyl-1H-pyrazol-4-yl)pyrazin-2-yl)-2-methylpiperidin-4-ol] | 1 to 10 µM | > 100 µM
Cc1nn(C(C)C)cc1-c1cncc(N2CCC(O)(c3ccc(F)c(F)c3)CC2)n1 [Example 48, 4-(3,4-difluorophenyl)-1-(6-(1-isopropyl-3-methyl-1H-pyrazol-4-yl)pyrazin-2-yl)piperidin-4-ol] | < 0.1 µM | 10 to 100 µM
Cc1cc(-c2cncc(N3CCC(O)(c4ccc(F)c(F)c4)CC3)n2)n(C)n1 [Example 53, 4-(3,4-difluorophenyl)-1-(6-(1,3-dimethyl-1H-pyrazol-5-yl)pyrazin-2-yl)piperidin-4-ol] | 1 to 10 µM | > 100 µM
COc1ccc(C2(O)CCN(c3cncc(-n4cccn4)n3)CC2)cc1 [Example 2, 1-(6-(1H-pyrazol-1-yl)pyrazin-2-yl)-4-(4-methoxyphenyl)piperidin-4-ol] | > 10 µM | > 100 µM
OC1(c2ccc(F)cc2)CCN(c2cncc(-c3ccccc3F)n2)CC1 [Example 25, 4-(4-fluorophenyl)-1-(6-(2-fluorophenyl)pyrazin-2-yl)piperidin-4-ol] | 1 to 10 µM | > 100 µM
Cc1nn(C)cc1-c1cc(C(=O)NCc2ccccc2)cc(N2CCC(O)(c3ccc(F)c(F)c3)CC2)n1 [Example 40, N-benzyl-2-(4-(3,4-difluorophenyl)-4-hydroxypiperidin-1-yl)-6-(1,3-dimethyl-1H-pyrazol-4-yl)isonicotinamide] | 0.1 to 1 µM | > 100 µM
